# How the values were obtained:
# CD-HFD fed C57BL/6 mice = assay: CD-HFD mouse model of NASH and NASH-triggered HCC; assay type: in vivo; details: for development of NASH: MRI analysis and histological analysis; for Histopathological signs of NASH (e.g. ballooned hepatocytes): H/E stains of liver; for Aberrant hepatic lipid metabolism and b-Oxidation: Real time PCR analysis for gene expression in the liver
# Excerpt: Indeed that approach enabled the inventors to study a chronic model of NASH in the context of metabolic syndrome, triggering subsequent HCC in C57BL/6 mice, in the absence of chemical carcinogens or genetic mutations predisposing to NASH or HCC development. CD-HFD fed mice display several long term pathologies observed in human patients: abdominal obesity, overweight, insulin resistance, liver damage, production of reactive oxygen species (ROS) fibrosis, hepatic mitochondrial damage, dyslipidemia and NASH. Moreover, HCC developed 12 months post CD-HFD start and resembled histologically, genetically and morphologically human HCC (FIG. 1). Cholesterol Diet—High Fat Diet (CD-HFD) in mice recapitulates human NASH and NASH triggered HCC pathology. (FIG. 1A) Weight development in male normal diet fed (ND) and CD-HFD fed C57BL/6 mice. (FIG. 1B) Intraperitoneal Glucose tolerance test performed with 6-month-old male ND and CD-HFD C57BL/6 mice. (FIG. 1C) Quantification of serum aminotransferase (ALT) levels in male C57BL/6 mice reflecting liver damage. (FIG. 1D) MRI analyses on livers of 6-month-old ND and CD-HFD C57BL/6 mice. T1 (fast low-angle shot [FLASH]) OUT phase: dark color indicative of steatosis. T2 TurboRare visualizes increase in subcutaneous and abdominal fat and hepatic lipid accumulation (bright regions) in CD-HFD mice. (FIG. 1E) Macroscopy and histopathology of livers from 12-month-old ND, HFD, or CD-HFD C57BL/6 mice, with arrowhead pointing towards HCC. Scale bar: 5 mm. T: Tumor. NT: Non-Tumor. ***P=0.001. (F) Representative H&E staining of 12-month-old CD-HFD C57BL/6 livers and human livers illustrating NASH. Accumulation of Mallory Denk bodies (red arrowhead), ballooned hepatocytes (brown arrowhead), and satellitosis (blue arrowhead) is similar to human NASH pathology (right image). Scale bar: 50 μm.
# (§1) Aspirin/Clopidrogrel (Asp/Clop), a thrombocyte aggregation inhibitor, treatment reduces the capacity of platelets aggregate and prevents NASH and aberrant hepatic lipid metabolism (FIG. 5). (FIG. 5A) Asprin/Clopidrogrel treatment reduces the number of platelets in the liver (White bars: ND; Black bars: CD-HFD; Green bars: CD-HFD treated with Asp/Clop). […] (FIG. 5E) Liver to body weight ratio is rescued upon Asp/Clop treatment at 12 months of age. (FIG. 5F) Liver damage as measured by ALT levels in serum is prevented in Asp/Clop treated mice. (FIG. 5G) Triglycerides are reduced in serum of Asp/Clop treated mice at 12 months of age. (FIG. 5H) Serum cholesterol is reduced in Asp/Clop treated mice at 6 and 12 months, (FIG. 5I) Aberrant hepatic lipid metabolism and b-Oxidation is rescued in Asp/Clop treated mice—as analyzed by Real time PCR analysis for gene expression in the liver. Stars indicate significance. […] (FIG. 5J) Lipid deposition in the liver indicated by a dark staining in the T1 (FLASH) OUT phase is not detected—as in the CD-HFD. Still at the same time abdominal and subcutaneous fat are visible in Asp/Clop treated mice. (FIG. 5K) Histopathological signs of NASH (e.g. ballooned hepatocytes—see also stars) are absent in Asp/Clop treated mice.
# platelets = assay: ex vivo activation / aggregation assay on platelets taken from peripheral blood; assay type: cell-based; details: platelets taken from peripheral blood of treated CD-HFD mice
# Excerpt: By using different dilution curves of CRP or Thr a reproducible and consistent analysis of the platelet-response rate was visible.
# as §1
SMILES,Liver damage as measured by ALT levels in serum (CD-HFD fed C57BL/6 mice; CD-HFD fed mice),development of obesity (CD-HFD fed C57BL/6 mice; CD-HFD fed mice),insulin resistance (intraperitoneal glucose tolerance test) (CD-HFD fed C57BL/6 mice; CD-HFD fed mice),development of NASH (CD-HFD fed C57BL/6 mice; CD-HFD fed mice),Histopathological signs of NASH (e.g. ballooned hepatocytes) (CD-HFD fed C57BL/6 mice),Lipid deposition in the liver (dark staining in the T1 (FLASH) OUT phase) (CD-HFD fed C57BL/6 mice; MRI),abdominal and subcutaneous fat (CD-HFD fed C57BL/6 mice; MRI),Aberrant hepatic lipid metabolism and b-Oxidation (CD-HFD fed C57BL/6 mice),Triglycerides in serum (CD-HFD fed C57BL/6 mice; at 6 or 12 months of age),Liver to body weight ratio (CD-HFD fed C57BL/6 mice; at 12 months of age),number of HCC (HCC incidence) (CD-HFD fed C57BL/6 mice; CD-HFD fed mice),Serum cholesterol (CD-HFD fed C57BL/6 mice; at 6 and 12 months),Triglycerides in serum (CD-HFD fed C57BL/6 mice; at 12 months of age),Activation status of platelets (ex vivo assay) (platelets),Aggregation capacity status of platelets (ex vivo aggregation assay) (platelets)
"CC1=C(CC(=O)O)c2cc(F)ccc2/C1=C\c1ccc([S+](C)[O-])cc1 (centres unmarked) [sulindac, Sulindac]",not prevented,do develop obesity,insulin resistant as CD-HFD fed mice,does not prevent the development of NASH,present,detected,visible,not rescued,not significantly reduced,not rescued,–,–,–,–,–
"CCCSc1nc(N[C@@H]2C[C@H]2c2ccc(F)c(F)c2)c2nnn([C@@H]3C[C@H](OCCO)[C@@H](O)[C@H]3O)c2n1 [ticagrelor, Ticagrelor]",significantly reduced,do develop obesity,–,blocks NASH and HCC development,not present,–,–,rescued,–,–,No HCC,significantly reduced,reduced by trend,significantly reduced,significantly reduced
